Values quoted from earlier work, collected in patent US4806659A, “Tannin compounds” (Kabushiki Kaisha Tsumura Juntendo, priority 1985, dated 1989).

Conditions: known drugs, schizophrenia
In the case of `OCCN1CCN(CCCN2c3ccccc3Sc3ccc(Cl)cc32)CC1` [perphenazine], the “anti-hallucination and -delution effects” value is given as “strong anti-hallucination and -delution effects”. In the case of `CCN1CCCC1CNC(=O)c1cc(S(N)(=O)=O)ccc1OC` (stereo not drawn) [sulpiride], the sedative effect is given as “mild sedative effect”. For `CN(C)CCCN1c2ccccc2Sc2ccc(Cl)cc21` [chlorpromazine], the sedative effect is given as “strong sedative effect”. In the case of `O=C(CCCN1CCC(O)(c2ccc(Cl)cc2)CC1)c1ccc(F)cc1` [haloperidol], the “anti-hallucination and -delution effects” value is listed as “strong anti-hallucination and -delution effects”. In the case of `COc1ccc2c(c1)N(C[C@H](C)CN(C)C)c1ccccc1S2` [Levomepromazine], the sedative effect is listed as “strong sedative effect”. For `OCCN1CCN(CCCN2c3ccccc3Sc3ccc(C(F)(F)F)cc32)CC1` [fluphenazine], the “anti-hallucination and -delution effects” value is given as “strong anti-hallucination and -delution effects”.
